{"source": "patent US20060247165A1", "about": "“Methods and compositions for encapsulation of cells” (priority 2005, published 2006)", "key": {"injured spinal cord": {"tested_on": "injured spinal cord", "assay": "Stability of fluorescent peptide amphiphile gel in injured spinal cord", "format": "in vivo, mouse", "from_the_text": "Mouse spinal cord injuries, amphiphile injections and animal care. All animal care and surgical interventions were undertaken in strict accordance with the Public Health Service Policy on Humane Care and Use of Laboratory Animals, Guide for the Care and Use of Laboratory Animals (Institute of Laboratory Animal Resources, National Research Council, 1996). The Institutional Animal Care and Use Committee approved of all operative procedures. Female, adult 129 SvJ mice (10 weeks old; Jackson Labs, USA) were anesthetized using avertin intraperitoneally. A laminectomy was performed and the spinal cord was compressed dorsoventrally at T10 by the extradural application of a modified Kerr-Lougheed aneurysm clip for 1 min (FEJOTA mouse clip, University Health Network, Canada). The skin was sutured using AUTOCLIP (9 mm, Becton Dickinson). Post-operatively, animals were kept under a heat-lamp to maintain body temperature. […]\nPeptide amphiphile solution or vehicle was injected 24 hours after the spinal cord injury using borosilicate glass capillary micropipettes (Sutter Instruments) (OD: 100 μm). […] The micropipette was manually inserted to a depth of 750 μm measured from the dorsal surface of the cord and 2.5 μl of the diluted amphiphile solution or vehicle was injected at the rate of 2.5 μl/min. […]"}, "[1]": {"tested_on": "neural progenitor cells (NPCs)", "assay": "Immunocytochemistry of NPC differentiation (β-tubulin III neurons, GFAP astrocytes) in 3D scaffolds", "format": "cell-based, mouse", "method": "(§1) Cell Culture and In Vitro Encapsulation in IKVAV-PA nano-networks. Neural progenitor cells (NPCs) were cultured as previously described (See, e.g., Zhu et al., J. Neurosci. Res. 59, 312 (2000)). Briefly, the cortices of E13 mouse embryos were dissected and plated on un-treated petri dishes in DMEM/F12 media supplemented with bFGF (10 ng/ml). After four days, mechanically and enzymatically dissociated NPCs and undissociated neurospheres (e.g., undissociated NPC aggregates) were plated onto appropriate substrates (e.g., encapsulated in IKVAV-peptide amphiphile (PA), EQS-PA, or alginate gels, or cultured on laminin, poly-D-lysine, or IKVAV peptide coated cover slips). In all cases this was taken as 0 days in vitro. […]\n(§2) Immunocytochemistry. […] Cell imaging was done with a high resolution Cool Snap camera attached to a Nikon TE-2000 fluorescence microscope interfaced with a PC running MetaView imaging software, or an Axiocam camera attached to a Zeiss Axiovert 200 fluorescence microscope interfaced with a PC running AxioVision imaging software.\n(§3) Cell Counts. Randomly selected fields of view were imaged for different experimental conditions and cells counted using ImageJ (Scion Corporation) morphometric analysis software. […]"}, "[2]": {"tested_on": "neural progenitor cells (NPCs)", "assay": "Cell body area and neurite length of neurons differentiated from NPCs", "format": "cell-based, mouse", "conditions": "after 1 day", "method": "as §1, §2, §3"}, "[3]": {"tested_on": "neural progenitor cells (NPCs)", "assay": "NPC differentiation on two-dimensional coated substrates", "format": "cell-based, mouse", "conditions": "for differentiation into neurons on 2D substrate: cells plated for 1 day", "method": "Two-dimensional cultures. For IKVAV peptide experiments, the same 12 mm glass coverslips used for the three-dimensional experiments were soaked in ethanol to encourage hydrophilicity, then spin-coated with 50 μL of a 1 mg/mL IKVAV peptide solution. For IKVAV-PA experiments, the coverslips were coated with PDL (e.g., to encourage adsorption) and subsequently with IKVAV-PA solution. In both cases, the cover slips were allowed to dry overnight and then washed three times with distilled water to remove weakly adherent material before the addition of cell suspension.\nNPC differentiation on a two dimensional (2D) substrate coated with IKVAV-PA nanofibers was investigated."}, "spinal cord": {"tested_on": "spinal cord", "conditions": "rat, in vivo", "method": "Spinal Cord Injection Procedure. Rats were anesthetized using 45 mg/kg Pentobarbital (NEMBUTAL). A laminectomy was performed to expose spinal segment T13 and a stereotaxic micromanipulator (Kopf Instruments) with a Hamilton syringe attached to a 32 gauge needle was used to inject 6 μl at 333 nl/sec of isoosmotic glucose (vehicle) or peptide amphiphile into the spinal cord at T10 at a depth of 1.5 mm. The needle was kept inside the site of injection for 2 minutes after each injection in order to allow the IKVAV-PA to gel without disturbance."}}, "note": "Residues, ends and D or L forms follow the SMILES beside them. *: point of attachment. Butanoyl(4-pyren-1-yl) = O=C(CCCc1ccc2ccc3cccc4ccc1c2c34)*; Palmitoyl = CCCCCCCCCCCCCCCC(=O)*"}
{"compound": "CC[C@H](C)[C@H](NC(=O)[C@H](CCC(=O)O)NC(=O)[C@H](C)NC(=O)[C@H](C)NC(=O)[C@H](C)NC(=O)[C@H](CC(C)C)NC(=O)[C@H](CO)NC(=O)[C@H](CC(C)C)NC(=O)[C@H](CO)NC(=O)CCCc1ccc2ccc3cccc4ccc1c2c34)C(=O)N[C@@H](CCCCN)C(=O)N[C@H](C(=O)N[C@@H](C)C(=O)N[C@H](C(=O)O)C(C)C)C(C)C", "note": "[PA2] ({Butanoyl(4-pyren-1-yl)}-SLSLAAAEIKVAV-OH)", "values": [{"measurement": "presence of gel in injured cord", "setting": "injured spinal cord; 5 weeks after injection, 1% solution in isotonic glucose", "result": "remnants could still be seen"}, {"measurement": "lifetime of the nanofiber scaffold in vivo", "setting": "injured spinal cord; mouse, in vivo", "result": "on the order of weeks"}]}
{"compound": "laminin", "values": [{"measurement": "GFAP expression relative to cells cultured on nanofiber networks", "setting": "[1]; coated substrates", "result": "significantly greater"}, {"measurement": "neurite development", "setting": "[2]", "result": "had not developed neurites"}, {"measurement": "differentiation into neurons on 2D substrate", "setting": "[3]", "result": "did not lead to the significant neuron differentiation"}]}
{"compound": "isolucine-lysine-valine-alanine-valine [IKVAV peptide]", "values": [{"measurement": "neuron differentiation on titration into EQS-PA scaffolds", "setting": "[1]; increasing amounts of soluble peptide, 1 day", "result": "failed to induce the extent of neuron differentiation"}, {"measurement": "expression of β-tubulin III and/or GFAP on 2D coated substrate", "setting": "[3]", "result": "nearly nonquantifiable amounts"}, {"measurement": "differentiation into neurons on 2D substrate", "setting": "[3]", "result": "did not lead to the significant neuron differentiation"}]}
{"compound": "CCCCCCCCCCCCCCCC(=O)N[C@@H](C)C(=O)N[C@@H](C)C(=O)N[C@@H](C)C(=O)N[C@@H](C)C(=O)NCC(=O)NCC(=O)NCC(=O)N[C@@H](CCC(=O)O)C(=O)N[C@H](C(=O)N[C@@H](CCCCN)C(=O)N[C@H](C(=O)N[C@@H](C)C(=O)N[C@H](C(=O)O)C(C)C)C(C)C)[C@@H](C)CC", "note": "[IKVAV-PA] (Palmitoyl-AAAAGGGEIKVAV-OH)", "values": [{"measurement": "toxic effects after spinal cord injection", "setting": "spinal cord", "result": "no toxic effects"}]}
